Laboratory results from patent US9265816B2, “Immunogenic WT-1 peptides and methods of use thereof” (priority 2006, dated 2016).
Residues, ends and D or L forms follow the SMILES beside them.

Experiments:
CD3+ T cells [1] = assay: Cross-priming: T cells stimulated with DCs incubated with tumor lysates, IFN-gamma ELISPOT against peptide-pulsed DCs; format: cell-based, human; details: for experiments in which lysate-stimulated T cells recognized the peptide: WT1 positive tumor lysates, 5 separate donors
Description: A CD3^+ in vitro stimulation was performed as described above. 2×10^6 immature DCs were incubated with total cellular lysate from 2×10^6 tumor cells that was previously prepared by 3 freeze/thaw cycles. Following an 18 hour incubation, maturation cytokines were added to the DCs as described above. […] These DCs were exposed to peptide again during the ELISPOT assay as described above.
Total tumor lysates were prepared from 3 different cell lines: 697 (WT1^+, HLA A0201^+), an e1a2 leukemia cell line; JMN (WT1^+, HLA A0201^+) a biphasic mesothelioma cell line, and as a control, MeWo (WT1^−, HLA A0201^+), a malignant melanoma cell line. DCs from healthy A0201^+ donors were incubated for 18 hours with the tumor lysates and used to stimulate autologous CD3^+ T cells. Following 3 stimulations, the T cells were tested for their reactivity to autologous DCs pulsed with the WT1 peptides. […] These experiments were repeated in 5 separate donors.

CD3+ T cells [2] = assay: IFN-gamma ELISPOT of peptide-stimulated T cells from healthy donors with different HLA-DRB1 types; format: cell-based, human; details: for experiments with peptide specific T cell responses: 7 healthy donors, each a different HLA-DRB1 type, positive/total experiments; for peptide specific CD4 response, IFN-γ ELISPOT: donors with different HLA-DRB1 types, FIG. 5
Description: PBMC were Ficoll-purified from blood and resuspended at 5×10^6/ml in Ex-Vivo-150® medium (BioWhittaker, Walkersville, Md.) containing 1% autologous plasma. After a 2-hour incubation at 37° C., the non-adherent fraction was harvested and washed repeatedly with PBS, then resuspended in media containing 1×10^3 IU/ml GM-CSF and 0.0032 IU/ml IL-4. On day 2 and 4, the same media was added as re-feed (i.e., ½ the volume of media, containing enough cytokines for the entire dish, was added). On day 5, 10 μg/ml of peptide was added.
On day 6, a maturation cocktail of cytokines was added, and cells were cultured for another 48 hours. The maturation cocktail consisted of: 4×10^2 IU/ml IL-1-beta, 0.0032 IU/ml IL-4, 1×10^3 IU/ml IL-6, 1×10^3 IU/ml GMCSF, […], and 1 μg/ml PGE2.
On day 7, DC were harvested and washed twice with RPMI, counted, aliquoted and resuspended at 1×10^6/ml in X-vivo 15® media (without serum). Peptides were added to a final concentration of 10 μg/ml, and incubated for 2 h, 37° C. and 5% CO2, gently re-suspending every 15 minutes, then washed twice in HBSS and re-suspended in RPMI+5% autologous plasma at an appropriate concentration depending on the number of effectors isolated in the next step.
In addition, on day 7, additional PBMC were used to generate additional DC and CD3^+ cells. DC were isolated from the adherent fraction and prepared as described above for the second stimulation of the effector cells on day 14. CD3^+ cells were isolated from the non-adherent fraction by negative selection and stimulated with the previously prepared DC by re-suspending the CD3^+ cells at a concentration of 2×10^6 cells/ml in RPMI+5% autologous plasma, and adding DC at an effector:DC ratio of 20:1 and 10 ng/ml IL-15. Cells were then plated in 2 ml and co-incubated at 37° C. and 5% CO2 for 1 week.
On day 14, the CD3^+ cells were stimulated a second time with the second batch of DC in the same manner, except that 1×10^6 cells/ml were mixed with DC at an effector:DC ratio of 50:1. On day 18, the same media was added as re-feed. On day 20, the DC from the previous generation were defrosted and incubated in maturation cytokines in X-vivo 15® media. On day 21, the ELISPOT assay was conducted.
Plates were pre-wet with 30 μl/well 70% alcohol, shaking the plates to ensure coverage of the entire surface area, washed 3 times with 150 μl/well sterile PBS, then incubated overnight at 4° C. with 10 μg/ml coating antibody (anti-INF clone) in PBS, 100 μl/well, wrapped in aluminum foil. Plates were then washed 2 times with 150 μl/well PBS and 1 time with RPMI/10% autologous plasma (AP), then blocked with 150 μl/well RPMI/5% AP for 2 hours at 37° C. PBMC were suspended in RPMI/5% AP at 1×10^6/ml. […]

HLA-A0201 = HLA-A0201 (Homo sapiens, UniProt P04439, D140Y/D185E/D98H/E176V/E277Q/G131W/G231S/I119V/I121R/I166T/I218V/L300P/L318F/N151K/N90K/P208A/P217A/Q86G/Q94H/R138H/R169H/T345S); assay: T2 assay for peptide binding and stabilization of HLA A0201 molecules; format: cell-based; details: Example 1
Description: T2 cells (TAP^−, HLA-A0201^+) were incubated overnight at 27° C. at a concentration of 1×10^6 cells/ml in FCS-free RPMI medium supplemented with 5 μg/ml human β2m (Sigma, St Louis, Mo.) in the absence (negative control) or presence of either a positive reference tyrosinase peptide or test peptides at various final concentrations (50, 10, 1, and 0.1 micrograms (μg)/ml). Following a 4-hour incubation with 5 μg/ml brefeldin A (Sigma), T2 cells were labeled for 30 minutes at 4° C. with a saturating concentration of anti-HLA-A2.1 (BB7.2) mAb, then washed twice. Cells were then incubated for 30 minutes, 4° C. with a saturating concentration of FITC-conjugated goat IgG F(ab′)2 anti-mouse Ig (Caltag, San Francisco, Calif.), washed twice, fixed in PBS/1% paraformaldehyde and analyzed using a FACS Calibur® cytofluorometer (Becton Dickinson, Immunocytometry Systems, San Jose, Calif.).
The mean intensity of fluorescence (MIF) observed for each peptide concentration (after dividing by the MIF in the absence of peptide) was used as an indication of peptide binding and expressed as a “fluorescence index.” Stabilization assays were performed similarly. Following initial evaluation of peptide binding at time 0, cells were washed in RPMI complete medium to remove free peptides and incubated in the continuous presence of 0.5 μg/ml brefeldin-A for 2, 4, 6 or 8 hours.
The number of stable peptide-HLA-A2.1 complexes was estimated as described above by immunofluorescence. The half time of complexes is an estimate of the time required for a 50% reduction of the MIF value at time=0.

[3] = system: JMN (WT1+ mesothelioma cell line); format: cell-based, human
Description: (§1) FIG. 9, left panel. […] The presence of specific CTL was measured in a standard 4 h-chromium release assay. Target cells were pulsed with 10 microgram (mcg)/ml of synthetic peptides overnight at 37° C. and labeled with 300 μCi of Na2^51CrO4 (NEN Life Science Products, Inc., Boston, Mass.). After extensive washing, target cells were incubated with T cells at an E:T ratio ranging from 100:1 to 10:1. All conditions were performed in triplicate. Plates were incubated for 4 hours at 37° C. in 5% CO2. Supernatant fluids were harvested and radioactivity was measured in a gamma counter. Percent specific lysis was determined from the following formula: 100×[(experimental release minus spontaneous release)/(maximum release minus spontaneous release)]. Maximum release was determined by lysis of radiolabeled targets in 2.5% Triton X-100.

[4] = system: 697 (WT1+ leukemia cell line); format: cell-based, human
Description: FIG. 9, left panel. […] CD8^+ T cells were incubated with radiolabeled target cells (pulsed or unpulsed 697 (A0201^+, WT1^+) or SKLY16 (A0201+, WT1-) at 3 different E:T ratios: Grey bars 100:1; Black bars 30:1; White bars 10:1. Y axis: percentage of cytotoxicity. X axis: target cell conditions. *-p<0.05 compared to SKLY16 controls at the same E:T ratio. Right panel: CD8+ T cells isolated as described for the left panel were incubated with radiolabeled JMN (solid line A0201+ WT1+) or MeWo (dashed line A0201+, WT1-) target cells at 4 different E:T ratios: Y axis: percentage of cytotoxicity. X axis: E:T ratios. P was <0.001 compared to MeWo controls. The presence of specific CTL was measured in a standard 4 h-chromium release assay. Target cells were pulsed with 10 microgram (mcg)/ml of synthetic peptides overnight at 37° C. and labeled with 300 μCi of Na2^51CrO4 (NEN Life Science Products, Inc., Boston, Mass.). After extensive washing, target cells were incubated with T cells at an E:T ratio ranging from 100:1 to 10:1. […] Supernatant fluids were harvested and radioactivity was measured in a gamma counter. Percent specific lysis was determined from the following formula: 100×[(experimental release minus spontaneous release)/(maximum release minus spontaneous release)]. Maximum release was determined by lysis of radiolabeled targets in 2.5% Triton X-100.

[5] = system: MeWo (WT1- melanoma cell line); assay: Chromium 51 cytotoxicity assay; format: cell-based, human
Description: as §1

[6] = human T cells stimulated 2 times with the peptide

PGCNKRYFKLSHLQMHSRKHTG (listed as Homo sapiens) [Peptide 328]
experiments in which lysate-stimulated T cells recognized the peptide (CD3+ T cells [1]): ⅗
experiments with peptide specific T cell responses (CD3+ T cells [2]): 11/15
peptide specific CD4 response, IFN-γ ELISPOT (CD3+ T cells [2]): stimulated a significant peptide specific CD4 response

YLGEQQYSV (One or more amino acids changed compared to native peptide sequence) [WT1 B (analogue)]
stability of binding to HLA-A0201 (HLA-A0201): stable binding

LVRHHNMHQRNMTKL (listed as Homo sapiens) [Peptide 427]
experiments in which lysate-stimulated T cells recognized the peptide (CD3+ T cells [1]): all experiments

CSCC[C@H](NC(=O)[C@H](Cc1ccc(O)cc1)NC(=O)[C@H](C)NC(=O)[C@H](CCC(N)=O)NC(=O)CNC(=O)[C@@H](N)CO)C(=O)N[C@@H](Cc1ccccc1)C(=O)N1CCC[C@H]1C(=O)N[C@@H](CC(N)=O)C(=O)N[C@@H](C)C(=O)N1CCC[C@H]1C(=O)N[C@@H](Cc1ccc(O)cc1)C(=O)N[C@@H](CC(C)C)C(=O)N1CCC[C@H]1C(=O)N[C@@H](CO)C(=O)N[C@@H](CS)C(=O)N[C@@H](CC(C)C)C(=O)N[C@@H](CCC(=O)O)C(=O)N[C@@H](CO)C(=O)O [Peptide 122A1] (H-SGQAYMFPNAPYLPSCLES-OH)
cytotoxicity of stimulated CD4+ cells [3]: no cytotoxicity
A0201+ donors with similar cytotoxicity results [4]: ¾
cytotoxicity of stimulated CD8+ cells to 697 [4]: stimulated a sufficient number of CD8^+ cells to be cytotoxic to 697

YLLPAVPSL (One or more amino acids changed compared to native peptide sequence) [WT1 C1 (analogue)]
stability of binding to HLA-A0201 (HLA-A0201): stable binding

RSDELVRHHNMHQRNMTKL (listed as Homo sapiens) [Peptide 423]
experiments with peptide specific T cell responses (CD3+ T cells [2]): 3/14

TEYKLVVVGAPGVGKSALTIQ (listed as Homo sapiens) [RAS, reference compound]
peptide specific CD4 response, IFN-γ ELISPOT (CD3+ T cells [2]): did not produce IFN-γ over background levels

YMFPNAPYL (One or more amino acids changed compared to native peptide sequence) [WT1 A1 (analogue)]
recognition of MeWo cells by stimulated CD3+ T cells ([5]; MeWo alone or pulsed with WT1 122A1 peptide): not negative control MeWo cells
lysis of MeWo [5, 6]: 22.2%
recognition by T cells stimulated with DCs pulsed with 697 tumor lysate (CD3+ T cells [1]; 697 tumor lysate): recognized
recognition of JMN cells by stimulated CD3+ T cells ([3]; FIG. 9 right panel): recognized JMN cells
lysis of JMN [3, 6]: 44.8%
stability of binding to HLA-A0201 (HLA-A0201): stable binding
